US20210388012A1, “METHODS AND COMPOSITIONS FOR PRODRUG FORMS OF SPECTINOMYCIN AND SPECTINAMIDE ANALOGS” (priority 2018, published 2021)

Test: Pharmacokinetic study in rat
Format: in vivo, Sprague-Dawley rats
Settings: intravenous
Procedure: LC-MS Method 1. Quantitative determination of the amount of a disclosed compound present in blood, plasma, or urinary can be determined by LC-MS/MS methods. Briefly, a suitable method involves use of calibrants (0.976, 1.95, 3.91, 7.81, 15.63, 31.25, 62.5, 125, 250, 500, 1000 ng/mL) were in sample matrix (e.g., rat plasma, blood or urine). A separate solution of disclosed compound (independent of calibrants) is used to prepare quality controls. Appropriate volumes of working solutions are added to the sample matrix to yield the final concentrations of 1, 50, 1000 ng/mL. Linearity for calibrants in duplicate is assessed by subjecting the spiked concentrations and the respective peak areas to least-square linear regression analysis with and without intercepts, and a weighted least-square regression (1/x or 1/x^2). The lowest limit of quantitation (LLOQ) in the standard curve measured with acceptable accuracy and precision for a disclosed compound from rat plasma has been previously established as 0.976 ng/mL for a representative compound, 1810. All samples are precipitated by the addition of 4-volumes (100 μL) of IS, 1369 (10 ng/mL) in methanol to a volume (25 μL) of plasma/urine test sample. The samples are vortexed (Fisher scientific, USA) for 30 sec and centrifuged at 10,000×g for 10 min at 4° C. and the supernatants are collected for LC-MS/MS analysis. Chromatographic separation is carried out using a Shimadzu Nexera XR (LC-20ADXR) liquid chromatograph (Shimadzu Corporation, USA) consisting of two pumps, online degasser, system controller and an auto sampler. Mobile phase consisting of a) water with 1.6% nonafluoropentanoic acid and 0.7% formic acid b) 90% acetonitrile with 0.8% nonafluoropentanoic acid and 0.35% formic acid can be used at a flow rate of 0.5 rnLirnin in gradient mode. A Waters® Symmetry ® 3.5μ C8, 50×2.1 mm column (Waters, Milford, Mass.) is used for the separation. Samples (5 μL) are injected on column and the eluate is provided directly to an API 5500 triple quadruple mass spectrometer (Applied Biosystems, Foster City, Calif.) equipped with a turbospray ion source operated in the positive ion mode. The optimized multiple reactions monitoring (MRM) conditions for 3408 (549.2A207.1), 1810 (469.2^207.1) and IS (418.3^207.1) are monitored with a declustering potential of 45 V and collision energy of 25 eV. Data are acquired and processed with Analyst software version 1.6.2 (Applied Biosystems, Foster City, Calif.).
Pharmacokinetic assessment of the disclosed compounds can be determined in a rat model as described herein. Briefly, catheterized male Sprague-Dawley rats from Harlan Bioscience (Indianapolis, Ind.), weighing 200-250 g, are kept at a 12 h light/dark cycle with access to food and water ad libitum. The procedures are approved by the Institutional Animal Care and Use Committee of the University of Tennessee Health Science Center. Formulations of a disclosed compound are prepared in water (50%) and PlasniaLyte A (50%). Test compound can be administered either via intravenous route (10 mg/kg) via femoral vein catheter with the study conducted using a group of 6 rats. Blood (250 μL) was collected via the jugular vein catheter at 0.08, 0.25, 0.5, 0.75, 1, 1.5, 2, 4, 6, 8, 10, 24 and 48 h after drug administration. Plasma was immediately separated by centrifugation (6,000×g for 10 min at 4° C.) and stored at −70° C. until analysis. The plasma concentration was determined as described herein above in LC-MS Method 1, and plasma concentration-time courses were fitted to a non-compartmental model using Phoenix WinNonlin 7.0 (Certara L. P., Princeton, NJ). Area under the concentration-time profile curve (AUC) was calculated by the log trapezoidal rule by log-linear regression and extrapolated to infinity by addition of the value Ct/λZ, where Ct is the concentration at the last time point, and λZ the terminal slope (determined by linear regression) of the log concentration-time curve. […]

CN[C@@H]1[C@H](O)[C@H](NC)[C@H]2O[C@]3(O)[C@H](O[C@@H]2[C@H]1O)O[C@H](C)C[C@H]3NC(=O)Cc1ccc(OP(=O)(O)O)cn1 [Compound 3408, 6-(2-oxo-2-(((2R,4R,4a5,5aR,6S,7S,8R,9S,9aR,10aS)-4a,7,9-trihydroxy-2-methyl-6,8-bis(methylamino)decahydro-2H-benzo[b]pyrano[2,3-e][1,4]dioxin-4-yl)amino)ethyl)pyridin-3-yl dihydrogen phosphate]
In vivo conversion of prodrug to parent (in words): rapidly converted in vivo to the parent drug form
